Reference: US20100022639A1, “Methods of Inducing Weight Loss” (The Johns Hopkins University School of Medicine Licensing …, priority 2000, published 2010)

Columns and labels:
[1] = tested on: feeding behavior; test: Food intake after a single IP injection (metabolic cages); assay type: in vivo, BALB/c mice; settings: 15 mg/kg, first 24 hours
Method: Male BALB/c mice 19-22 g were weighed, treated by a single intra peritoneal (I.P.) injection and housed in metabolic cages. Body weight (FIG. 1.2A) and food intake (FIG. 1.2B) were monitored at 24 hour intervals.
Inhibitors of fatty acid synthesis would be expected to prevent triglyceride accumulation due to inhibition of de novo fatty acid synthesis and impact body weight in this manner. […] However, the dramatic C-75-induced weight loss cannot be accounted for by a blockade of fatty acid/triglyceride biosynthesis. Rather, the weight loss observed in response to C-75 treatment results primarily from an inhibition of feeding. The loss of adipose mass was accompanied by a reduction of lean body mass typical of that observed in fasting. Administration of 15 mg/kg body weight led to a greater than 90% reduction in food intake over the first 24 hours (FIG. 1.2B). Feeding behavior then returned to normal progressively over a 48-72 hour period as the drug effect dissipated. The role of feeding inhibition in C-75 induced weight loss was confirmed by studies in which forced feeding of the drug treated animals largely reversed the observed weight loss.

[2] = tested on: feeding behavior; test: Feeding interval in 24 hour fasted mice; assay type: in vivo; settings: 30 mg/kg IP, within 20 minutes of treatment
Method: Mice were fasted for 24 hours to induce voracious feeding. Initial feeding interval (time in seconds between food presentation and initiation of feeding) was measured in naive mice (pretreat). Mice were then treated by I.P. injection of 30 mg/kg C-75 or RPMI vehicle and feeding interval determined at 20, 40 and 60 minutes post-injection. Observation was terminated if no feeding was initiated within 1000 see (experimental cut off). Times represent mean +/−SEM, (n=4).
Prior to treatment, all animals fed ravenously within 3 minutes of being offered food.

[3] = tested on: leptin; test: Serum leptin ELISA; assay type: in vivo, BALB/c mice; settings: 30 mg/kg IP, 24 hours
From the text: One of the primary signals modulating NPY function in feeding control is leptin. This hormone is elevated in the fed state and inhibits NPY production and feeding (Schwartz, et al., 1996, Diabetes, 45:531) in a manner similar to that observed with C-75 treatment. Leptin was an attractive candidate as its primary site of production, white adipose tissue (Zhang, et al., 1994, Nature, 372:425), is a site of fatty acid synthesis and expresses high levels of FAS. To test for increased leptin release as the signal mediating C-75 regulation of NPY, serum leptin levels were assessed in fed (end of light cycle) fasted and C-75-treated mice. BALB/c mice treated with RPMI vehicle (o) or 30 mg/kg C-75 (▪) I.P. and free fed, or fasted ([…]) for 24 hours were weighed, decapitated and exsanguinated. Serum leptin levels were determined using a QUANTIKINE™ murine leptin ELISA (R&D Systems) and plotted against total body weight (FIG. 3A). […] This reduction correlates with the reduction in body weight, presumably body fat, resulting from C-75 treatment FIG. 3A). […] Northern blot analysis of leptin message levels in white adipose tissue from the same animals (performed as described above) supports this observation (data not shown).

[4] = tested on: liver and white adipose tissue; test: Histology of liver and white adipose tissue of treated ob/ob mice; assay type: in vivo
From the text: C-75 treatment not only led to weight loss, but also corrected many of the pathological consequences that result from the extreme obesity of ob/ob mice. Liver samples from vehicle and C-75 treated mice (from FIG. 3B) were fixed in formalin and paraffin embedded. Tissue sections (4 μm) were stained with hematoxylin and eosin. […] The observation that C-75 acts through a leptin independent mechanism is particularly promising in that the majority of obese individuals appear to be relatively resistant to leptin's effects (Caro, et al., 1996, Lancet, 348:159).

[5] = tested on: serum glucose; test: Serum glucose in ob/ob mice; assay type: in vivo; settings: 2 weeks treatment, n=3
Method: (§1) In addition to obesity, ob/ob mice also develop overt diabetes with significant elevation of blood glucose. C-75 corrected the hyperglycemia observed in vehicle treated mice with a nearly 3-fold reduction in mean serum glucose (FIG. 4A). Male ob/ob mice (n=3) were treated with C-75 or vehicle for 2 weeks (FIGS. 3B and C) and compared with age matched, untreated c57BL/6j mice (+/+). […] The normalization of blood glucose occurred from the profound weight loss in the ob/ob mice as acute treatment of normal mice with C-75 had no effect on serum other than that resulting from inhibition of feeding (FIG. 4B). Male BALB/c mice (n=7) were fasted for 24 hours or injected IP with 30 mg/kg C-75 or RPMI vehicle and allowed free access to food for 24 hours. In both cases, serum was collected at death and assayed for glucose: RefLab™ GLU (Medical Analysis Systems, Inc., Camarillo, Calif.). […] Both panels are representative of 2 experiments.

[6] = tested on: serum glucose; test: Serum glucose in wild-type mice, acute treatment; assay type: in vivo, BALB/c mice; settings: 30 mg/kg IP, 24 hours, n=7
Method: as §1

[7] = tested on: feeding behavior; test: Food intake after ICV injection of C-75; assay type: in vivo, mice; settings: ICV 2 μl at 2.5 or 5 μg/μl, food intake over 2 and 4 hours
Method: This model predicts that feeding inhibition by FAS inhibitors should be attenuated by inhibitors of ACC's. To test this, mice were pretreated with the ACC inhibitor TOFA or vehicle by ICV injection and examined the ability of C-75, administered IP, to inhibit feeding. BALB/c mice were anesthetized with metofane and injected ICV with 2 μg of TOFA or DMSO vehicle. After 2 hours recovery, mice were injected IP with 15 mg C-75/kg or RPMI vehicle and monitored for total food intake over 2 hours. […] In addition, mice were anesthetized and injected ICV with 2 μl of RPMI or C-75 at 2.5 or 5 μg/μl and food intake monitored over 2 (shaded) and 4 (solid) hours. The efficacy of centrally administered TOFA argues for a central (CNS) mechanism of action. ICV administration of C-75 inhibited feeding by 82% (FIG. 5C), supporting the central target action of C-75. FIGS. 5(B) and (C) combine results from 3 experiments with N=3 for each (9 total).

## C=C1C(=O)OC(CCCCCCCC)C1C(=O)O (stereo not drawn) [C-75]
[1]
  reduction in food intake: greater than 90%
[2]
  feeding initiation in fasted mice: lost all interest in feeding
[3]
  serum leptin levels: reduction in leptin levels
[4]; 14 days treatment
  liver histology (hepatomegaly and fatty liver): marked reduction in the hepatomegaly and fatty liver
[4]; 14 days treatment (not shown)
  mean adipocyte size in white adipose tissue: dramatic reduction in mean adipocyte size
[4]; liver and white adipose tissue
  histological abnormality from chronic treatment: no evidence of histological abnormality
[5]
  reduction in mean serum glucose: ~3 fold
[6]
  effect on serum glucose in wild-type mice: no effect on serum glucose beyond that attributable to fasting
[7]
  inhibition of feeding by ICV administration: 82%
